Source: US10294202B2, “Pyrrolidinones as herbicides” (FMC Corporation, priority 2013, dated 2019)

Key:
ducksalad = test: Test C flooded paddy test; assay type: in vivo, Heteranthera limosa; conditions: Flood
Outline: (§1)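 Visual ratings from 0, no effect, to 100, complete control, were made against untreated controls after 13–15 greenhouse days. Compounds had gone straight into paddy water 3 cm above the soil, kept at that depth, on 2-leaf-stage plants.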

wheat = test: Test A pre-/postemergence herbicide test; assay type: in vivo, Triticum aestivum; conditions: Postemergence
Outline: (§2)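 Approximately 10 days after treatment in the greenhouse, plants were compared with untreated controls and given a 0–100 visual injury rating. Applications: preemergence directed soil spray; postemergence on 2–10 cm plants at the one- to two-leaf stage.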

barnyardgrass [1] = test: Test C flooded paddy test; assay type: in vivo, Echinochloa crus-galli; conditions: Flood
Outline: as §1

barnyardgrass [2] = test: Test A pre-/postemergence herbicide test; assay type: in vivo, Echinochloa crus-galli
Outline: as §2

sedge, umbrella = test: Test C flooded paddy test; assay type: in vivo, Cyperus difformis; conditions: Flood
Outline: as §1

ragweed = test: Test A pre-/postemergence herbicide test; assay type: in vivo, Ambrosia elatior; conditions: for Plant response rating, Ragweed: 0 to 100 scale
Outline: as §2

giant foxtail = test: Test A pre-/postemergence herbicide test; assay type: in vivo, Setaria faberii; conditions: for Plant response rating, Foxtail, Giant: 0 to 100 scale
Outline: as §2

blackgrass = test: Test A postemergence herbicide test; assay type: in vivo, Alopecurus myosuroides
Outline: (§3)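 Young potted plants in a loam–sand mix, one- to two-leaf stage and 2–10 cm tall, receive the test chemical postemergence and stay in a greenhouse for approximately 10 days. Injury is then judged by eye against untreated plants, scored 0 (none) to 100 (complete control).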

pigweed = test: Test A pre-/postemergence herbicide test; assay type: in vivo, Amaranthus retroflexus; conditions: for Plant response rating, Pigweed: 0 to 100 scale
Outline: as §2

ryegrass, Italian = test: Test A pre-/postemergence herbicide test; assay type: in vivo, Lolium multiflorum; conditions: for Plant response rating, Ryegrass, Italian: 0 to 100 scale
Outline: as §2

corn = test: Test A pre-/postemergence herbicide test; assay type: in vivo, Zea mays; conditions: Postemergence
Outline: as §2

kochia = test: Test A pre-/postemergence herbicide test; assay type: in vivo, Kochia scoparia; conditions: for Plant response rating, Kochia: 0 to 100 scale
Outline: as §2

galium = test: Test A postemergence herbicide test; assay type: in vivo, Galium aparine
Outline: as §3

rice = test: Test C flooded paddy test; assay type: in vivo, Oryza sativa; conditions: Flood
Outline: as §1

[3] = 125 g ai/ha, scale of 0 to 100 where 0 is no effect and 100 is complete control, 13 to 15 days
[4] = 125 g ai/ha, 0 to 100 scale, 0 no effect, 100 complete control
[5] = Preemergence, 125 g ai/ha, visual rating on 0 to 100 scale (0 no effect, 100 complete control)
[6] = Postemergence, 125 g ai/ha, 0 no effect, 100 complete control
[7] = 500 g ai/ha, 0 to 100 scale (0 no effect, 100 complete control)

O=C1NCC(c2cccc(C(F)(F)F)c2)C1C(=O)Nc1nnc(C(F)(F)F)s1 (racemic) [Compound 112]
0: Plant response rating, Ducksalad (ducksalad; [3]) | Plant response rating, Ducksalad (ducksalad; 250 g ai/ha, scale 0 to 100) | Plant response rating, Ducksalad (ducksalad; 500 g ai/ha, scale 0 to 100) | Plant response rating, Ducksalad (ducksalad; 1000 g ai/ha, scale 0 to 100) | Plant response rating, Wheat (wheat; [4]) | Wheat plant response rating (0 to 100 scale, 0 is no effect, 100 is complete control) (wheat; 500 g ai/ha) | Plant response rating, Barnyardgrass (barnyardgrass [1]; [3]) | Plant response rating, Barnyardgrass (barnyardgrass [1]; 250 g ai/ha, scale 0 to 100) | Plant response rating, Barnyardgrass (barnyardgrass [1]; 500 g ai/ha, scale 0 to 100) | Plant response rating, Barnyardgrass (barnyardgrass [1]; 1000 g ai/ha, scale 0 to 100) | Plant response rating, Barnyardgrass (barnyardgrass [2]; Postemergence, 125 g ai/ha, 0 to 100 scale, 0 no effect, 100 complete control) | Plant response rating, Barnyardgrass (barnyardgrass [2]; Postemergence, 500 g ai/ha, 0 to 100 scale (0 no effect, 100 complete control)) | Barnyardgrass plant response rating (barnyardgrass [2]; [5]) | Plant response rating, Barnyardgrass (barnyardgrass [2]; preemergence, 500 g ai/ha, 0 to 100 scale (0 no effect, 100 complete control)) | Plant response rating, Sedge, Umbrella (sedge, umbrella; [3]) | Plant response rating, Sedge, Umbrella (sedge, umbrella; 250 g ai/ha, scale 0 to 100) | Plant response rating, Sedge, Umbrella (sedge, umbrella; 500 g ai/ha, scale 0 to 100) | Plant response rating, Sedge, Umbrella (sedge, umbrella; 1000 g ai/ha, scale 0 to 100) | Plant response rating, Ragweed (ragweed; [6]) | Ragweed plant response rating (0 to 100 scale, 0 is no effect, 100 is complete control) (ragweed; Postemergence, 500 g ai/ha) | Ragweed plant response rating (ragweed; [5]) | Plant response rating, Ragweed (ragweed; preemergence, 500 g ai/ha) | Plant response rating, Foxtail, Giant (giant foxtail; [6]) | Foxtail, Giant plant response rating (0 to 100 scale, 0 is no effect, 100 is complete control) (giant foxtail; Postemergence, 500 g ai/ha) | Foxtail, Giant plant response rating (giant foxtail; [5]) | Plant response rating, Foxtail, Giant (giant foxtail; preemergence, 500 g ai/ha) | Plant response rating, Blackgrass (blackgrass; [4]) | Plant response rating, Blackgrass (blackgrass; [7]) | Plant response rating, Pigweed (pigweed; [6]) | Pigweed plant response rating (0 to 100 scale, 0 is no effect, 100 is complete control) (pigweed; Postemergence, 500 g ai/ha) | Pigweed plant response rating (pigweed; [5]) | Plant response rating, Pigweed (pigweed; preemergence, 500 g ai/ha) | Plant response rating, Ryegrass, Italian (ryegrass, Italian; [6]) | Ryegrass, Italian plant response rating (0 to 100 scale, 0 is no effect, 100 is complete control) (ryegrass, Italian; Postemergence, 500 g ai/ha) | Ryegrass, Italian plant response rating (ryegrass, Italian; [5]) | Plant response rating, Ryegrass, Italian (ryegrass, Italian; preemergence, 500 g ai/ha) | Plant response rating, Corn (corn; [4]) | Plant response rating, Corn (corn; [7]) | Plant response rating, Kochia (kochia; [6]) | Kochia plant response rating (0 to 100 scale, 0 is no effect, 100 is complete control) (kochia; Postemergence, 500 g ai/ha) | Kochia plant response rating (kochia; [5]) | Plant response rating, Kochia (kochia; preemergence, 500 g ai/ha) | Plant response rating, Galium (galium; [4]) | Galium plant response rating (0 to 100 scale, 0 is no effect, 100 is complete control) (galium; 500 g ai/ha) | Plant response rating, Rice (rice; [3]) | Plant response rating, Rice (rice; 250 g ai/ha, scale 0 to 100) | Plant response rating, Rice (rice; 500 g ai/ha, scale 0 to 100) | Plant response rating, Rice (rice; 1000 g ai/ha, scale 0 to 100)
